Structures can show the parent of a compound that is named as a salt.
Tests used:
Assay type in all cases: physicochemical
[1] = Solubility of 25HC3S salts after one day at room temperature (HPLC, as free acid); settings: one day
Protocol: These fluids were prepared per the instruction listed by Biorelevant (Biorelevant.com). Each buffer concentrate was diluted with water and mixed well. FaSSIF, FeSSIF, FaSSGF powder was added to each buffer and mixed to completely dissolve the powder. Buffers were stored at room temperature and used within 48 hours of preparation.
25HC3S salts were weighed in 8 mL or 4 mL glass vials with Teflon coated screw caps. Aliquots of each solvent were added to each sample and vortexed for about one minute until excess solid remained. Samples were placed on shaker at room temperature with 210 motion per minute shaking.
After one day, samples were pulled and checked if excess solid was present. About 1.5 mL aliquot of each sample was centrifuged at 12000 rpm for 12 to 15 minutes. […] Aliquots of the top clear solution of each centrifuged sample in MeOH, EtOH, IPA and ACN were diluted with diluent (water:MeOH 95:5) and assayed by HPLC. Samples of the salts in aqueous media were assayed by HPLC without dilution.
All solubility sample solutions of 25HC3S salts were determined using HPLC. A linear standard curve was constructed using standards with concentration between 11 μg/mL to 1.5 mg/mL as free acid forcing the curve to origin. Solubilities are reported as mg/mL free acid 25HC3S. Detection limit (LOD) of the HPLC method was calculated as 0.0007 mg/mL.

[2] = Solid-state chemical stability of 25HC3S salts at 2-8° C., 60° C. and 80° C. (HPLC assay and degradation products); settings: for % Impurities, Total / % Impurities, 25-HC: ND = Not Detected; for % Impurities, 25-HC: 25-Hydroxy-Cholesterol; for % Recovery: vs 2-8° C.; for Stability after 1 week at 60° C. (in words): 1 week (after 3 weeks at 2-8° C.)
Protocol: (§1) Approximately 25 mg of each crystalline 25HC3S salt was added to 20 mL glass vials and each powder weight was recorded. Four vials were prepared for each salt and stored at 2-8° C. or 80° C. according to Table B2. The samples were scheduled initially to pull for testing at 3 weeks and 6 weeks' time points.
(§2) For those […] salts, the remaining vials stored at 2-8° C. for 3 weeks were allocated for storage at 60° C. for 1 week. Additional stability data was generated according to Table B3.
Based on the molecular weights, and expected UV response factors of each salt used in this study, the expected analytical sample concentrations were within the range of the 25HC3S sodium reference standards (0.75 mg/mL to 1.25 mg/mL as 25HC3S sodium salt). However, due to the lower-than-expected purity of the 25HC3S benzathine salt, an additional standard was prepared at 0.125 mg/mL as 25HC3S sodium salt.
Samples were prepared by pipetting 20 mL of 100% methanol into each vial and mixing well, with sonication and vortexing to fully dissolve the samples for HPLC analysis.
Samples were prepared by pipetting 20 mL of 100% methanol into each vial followed by two rounds of sonication for 30 minutes, with 30 seconds of vortexing before and after each round. Sample aliquots were then centrifuged at 10,000 RPM for 10 minutes and the supernatant collected for HPLC analysis.
Samples were prepared by pipetting 20 mL of 100% methanol into each vial, followed by 5 seconds of vortexing. The undissolved powder in methanol was quantitatively transferred into 200 mL volumetric flasks. The sample vials were rinsed 3 times with methanol, with each rinsate transferred to the 200 mL volumetric flasks. The volumetric flasks were filled to about 90% volume and sonicated for 10 minutes to fully dissolve the powder. The flasks were filled to volume with methanol, mixed well and aliquots collected for HPLC analysis.
HPLC analysis was performed.

[3] = Appearance (color, clumping, flowability) of stored 25HC3S salts
Protocol: as §1, §2
For appearance, each unopened vial was visually examined for color, clumping, and flowability.

[4] = Angle of repose of 25HC3S salts; settings: for Flow Property per USP<1174> Powder Flow: classification by angle of repose
Protocol: Angle of repose is measured as follows. Powder is poured from a funnel onto a flat surface until a cone of powder is created. The angle of repose is calculated according to the following equation: […]
Table C1, from USP<1174> Powder Flow, describes the powder flow properties correlating to the angles of repose.
The lower the angle of repose, the more flowable is a material. Powder with an angle of repose between 25° to 30° will show excellent flow through a hopper, feed frame, die table and die bore smoothly. From 41° to greater than 66°, you may experience powder flow difficulties like rat-holing or bridging within the hopper.
The angle of repose was determined by pouring approximately 2 grams of a 25HC3S salt through a 7 mm inner diameter plastic tube into the center of a 21.14 mm diameter rubber O-ring, resulting in the formation of a powder cone of fixed diameter. The height of the cone was estimated with calipers.

[5] = Hausner ratio and compressibility index of 25HC3S salts; settings: for Compressibility Index: Table C3 heads this index in %
Protocol: Although there are some variations in the method of determining the compressibility index and Hausner ratio, the basic procedure is to measure the unsettled apparent volume, VO, and the final tapped volume, Vf, of the powder after tapping the material until no further volume changes occur. The compressibility index and the Hausner ratio are calculated as follows: […]
Both the Hausner ratio and the compressibility index are empirically established. The Hausner ratio and compressibility index are not absolute properties of a material; its value can vary depending on the methodology used to determine them. In this case, since the 14 salts of 25HC3S were measured the same way, the relative values should be accurate.
Table C3, from USP <1174> Powder Flow, describes the flow character of the powder based on the compressibility index and Hausner ratio values.
Powder was carefully poured into a 5 mL glass graduated cylinder (to contain) until it was close to or at 5.0 mL. This initial volume was recorded as Vo. The graduated cylinder was tapped on a hard surface for 200 times and the volume was recorded. The cylinder was tapped 100 times more, and the final volume Vf was recorded. Typically, the volume after 200 taps was identical to after 300 taps, or within 0.1 mL.

[6] = room temperature, listed as crystalline 25HC3S potassium
[7] = 2-8° C., 3 wk, listed as 25HC3S potassium
[8] = 60° C., 1 wk, listed as 25HC3S potassium
[9] = 80° C., 3 wk, listed as 25HC3S potassium
[10] = room temperature, listed as crystalline 25HC3S calcium
[11] = 2-8° C., 3 wk, listed as 25HC3S calcium
[12] = 80° C., 3 wk, listed as 25HC3S calcium

## CC(CCCC(C)(C)O)C1CCC2C3CC=C4CC(OS(=O)(=O)O)CCC4(C)C3CCC12C (stereo not drawn) [Salt #1]
[1]; [6]
  Solubility in FaSSGF (in words): low solubility
  Solubility in saline / 0.9% sodium chloride (in words): low solubility
[1]; Fasted State Simulated Gastric Fluid, pH 1.6, room temperature, as free acid, LOD 0.0007 mg/mL, 1440 min
  Solubility in FaSSGF: 2 µg/mL
[2]; [7]
  % Impurities, Total: 1.3%
  % Impurities, 25-HC: 0.2%
[2]; [8]
  % Impurities, 25-HC: 0.3%
  % Impurities, Total: 1.6%
[2]; 60° C., 1 week, listed as 25HC3S Potassium
  Physical and chemical solid-state stability (comments): Stable after 1 week at 60 C.
[2]; 60° C., 1 wk (after 3 weeks at 2-8° C.), 10080 min, listed as 25HC3S potassium, 10080 min
  Assay: 103.1 % w/w
[2]; 60° C., 1 wk, 10080 min, listed as 25HC3S potassium
  % Recovery of 2-8° C./3 wk vs 60° C./1 wk: 105.4%
[2]; 80° C., 3 weeks, listed as 25HC3S Potassium
  Physical and chemical solid-state stability (comments): totally decomposed after 3 weeks
[2]; 80° C., 3 wk, 30240 min, listed as 25HC3S potassium, 30240 min
  % Recovery: 0.0%
[2]; 80° C., 3 wk, 30240 min, listed as 25HC3S potassium
  Assay: 0.0 % w/w
[2]; [9]
  % Impurities, Total: 100%
[2]; solid state, 2-8° C., 3 wk, read-out: Assay
  remaining at 504 h: 97.8%
[2]; solid state, 60° C.
  Stability after 1 week at 60° C. (in words): stable
[2]; solid state, 80° C., 3 weeks
  Stability after 3 weeks at 80° C. (in words): totally decomposed
[3]; [7]
  Appearance: White, free flowing powder with some
[3]; 60° C., 1 wk (after 3 weeks at 2-8° C.), listed as 25HC3S potassium
  Appearance: White, free flowing powder with some
[3]; 80° C.
  Appearance after 3 weeks at 80° C.: completely burned
[3]; [9]
  Appearance: Dark brown powder, stuck to bottom of
[4]; listed as 25HC3S potassium
  Flow Property per USP<1174> Powder Flow: Fair - aid not needed
  Angle of Repose: 37.7 degrees
  Angle of Repose, Rounded Whole Number: 38 degrees
[5]; listed as 25HC3S potassium
  Compressibility Index: 26
  Hausner Ratio: 1.35

## CC(CCCC(C)(C)O)C1CCC2C3CC=C4CC(OS(=O)(=O)O)CCC4(C)C3CCC12C (stereo not drawn) [Salt #2]
[1]; 5% dextrose, room temperature, as free acid, LOD 0.0007 mg/mL, 1440 min
  Solubility in 5% Dextrose: 5 µg/mL
[1]; [10]
  Solubility in FaSSGF (in words): low solubility
  Solubility in saline / 0.9% sodium chloride (in words): low solubility
[1]; FaSSIF, room temperature, listed as crystalline 25HC3S calcium
  Solubility in FaSSIF (in words): relatively high solubility
[2]; 2-8° C., 3 wk, 30240 min, listed as 25HC3S calcium
  Assay: 92.9 % w/w
[2]; [11]
  % Impurities, Total: 1.6%
  % Impurities, 25-HC: 0.2%
[2]; 2-8° C., 60° C., 80° C.
  Overall physical and chemical stability (in words): least physically and chemically stable
[2]; 2-8° C., 60° C., 80° C., listed as 25HC35S calcium
  Overall physical and chemical stability (in words): least stable
[2]; 60° C., 1 week, listed as 25HC3S Calcium
  Physical and chemical solid-state stability (comments): Totally decomposed after 1 week at 60 °C
[2]; 60° C., 1 wk (after 3 weeks at 2-8° C.), 10080 min, listed as 25HC3S calcium, 10080 min
  Assay: 0.0 % w/w
[2]; 60° C., 1 wk, 10080 min, listed as 25HC3S calcium
  % Recovery of 2-8° C./3 wk vs 60° C./1 wk: 0.0%
[2]; 80° C., 3 weeks, listed as 25HC3S Calcium
  Physical and chemical solid-state stability (comments): Totally decomposed after 1 week at 60 °C and after 3 weeks at 80 °C
[2]; 80° C., 3 wk, 30240 min, listed as 25HC3S calcium, 30240 min
  % Recovery: 0.0%
[2]; 80° C., 3 wk, 30240 min, listed as 25HC3S calcium
  Assay: 0.0 % w/w
[2]; [12]
  % Impurities, Total: 100%
[2]; after 1 week at 60° C. and 3 weeks at 80° C.
  degradants dissolved in the diluent (comments): degradants were dissolved in the diluent.extract
[2]; solid state, 60° C.
  Stability after 1 week at 60° C. (in words): totally decomposed
[2]; solid state, 80° C., 3 weeks
  Stability after 3 weeks at 80° C. (in words): totally decomposed
[3]; [11]
  Appearance: White, free flowing powder with some
[3]; 60° C., 1 wk (after 3 weeks at 2-8° C.), listed as 25HC3S calcium
  Appearance: Brown, melted material stuck to bottom
[3]; 80° C.
  Appearance after 3 weeks at 80° C.: completely burned
[3]; [12]
  Appearance: Dark brown, melted material stuck to
[4]; listed as 25HC3S calcium
  Flow Property per USP<1174> Powder Flow: Passable - may hang up
  Angle of Repose: 42.6 degrees
  Angle of Repose, Rounded Whole Number: 43 degrees
[5]; listed as 25HC3S calcium
  Compressibility Index: 36
  Hausner Ratio: 1.56
